BindingDB's records for patent US10208011 (G1 Therapeutics, Inc., 2019)

Legend:
Estrogen receptor [1] = biological target: T1, Estrogen receptor (Homo sapiens, UniProt P03372); experiment: Estrogen Receptor (ER) Degradation Assay
T1 sequence (P03372 whole entry): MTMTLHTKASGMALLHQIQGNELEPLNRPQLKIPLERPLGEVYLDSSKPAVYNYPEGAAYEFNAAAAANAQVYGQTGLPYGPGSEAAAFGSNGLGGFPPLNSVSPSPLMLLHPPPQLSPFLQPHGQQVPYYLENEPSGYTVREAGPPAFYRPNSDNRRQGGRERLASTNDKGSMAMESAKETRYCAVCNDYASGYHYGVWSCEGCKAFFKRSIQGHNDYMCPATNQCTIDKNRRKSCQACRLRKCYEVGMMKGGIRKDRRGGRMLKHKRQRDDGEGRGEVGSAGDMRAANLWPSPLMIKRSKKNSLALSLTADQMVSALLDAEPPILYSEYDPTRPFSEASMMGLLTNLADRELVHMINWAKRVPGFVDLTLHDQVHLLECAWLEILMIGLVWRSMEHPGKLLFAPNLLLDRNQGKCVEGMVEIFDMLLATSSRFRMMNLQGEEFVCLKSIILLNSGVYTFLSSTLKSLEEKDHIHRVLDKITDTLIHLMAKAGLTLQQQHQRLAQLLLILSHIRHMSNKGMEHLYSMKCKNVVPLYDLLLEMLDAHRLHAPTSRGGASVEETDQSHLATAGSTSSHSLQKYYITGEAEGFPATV
Experimental: A screening strategy was implemented utilizing an In-Cell Western assay to measure their ability to degrade the estrogen receptor in vitro. MCF7 cells, which are estrogen receptor positive, were plated at a cell density of […] into black walled clear bottom 96-well plates. Cells were incubated in phenol red free Dulbecco's Modified Eagle Media (DMEM) supplemented with 8% charcoal-stripped fetal bovine calf serum for 24 hours in a humidified 37° C. incubator. Concentrated stock compounds were diluted to 10× in complete media. Compounds were added to the plated cells in a dose-dependent manner ranging from 1E-12 to 1E-05 M and incubated for an additional 24 hours at 37° C. Culture medium was removed from the culture plates by gentle inversion. Cells were fixed in 4% paraformaldehyde in 1× phosphate buffered saline-calcium magnesium free (PBS-CMF) for 15 minutes at room temperature, washed 3 times for 5 minutes each in 1×PBS-CMF. […] ER protein expression was assessed by the Licor Odyssey CLx imaging system using Image Studio v5.2. Data is processed utilizing GraphPad Prism 7 by subtracting background from the vehicle and setting the vehicle to 100% ER activity, followed by comparing treated samples to vehicle.

Estrogen receptor [2] = biological target: T1, Estrogen receptor; experiment: Human ERalpha Reporter Assa
Experimental: All reagents used in this assay was supplied in the Human ERα Reporter Assay by Indigo Biosciences # IB00401. In an effort to screen selective estrogen receptor degraders (SERDs), the Human ERα Reporter Assay, supplied by Indigo Biosciences, was utilized to quantify antagonist functional activity against the human estrogen receptor. Reporter cells were thawed at 37° C. and added to pre-warmed to 37° C. cell recovery medium (CRM). Stock concentration of 17β-estradiol was serially diluted in CRM. […] Cells plus 17β-estradiol were dispensed in a kit-supplied white walled 96-well plate. Concentrated stocks of test compounds were diluted to 2× working concentrations in cell screening medium (CSM). 2× concentrated compounds were added to the plated cells in a dose-dependent manner resulting in a final concentration range of 1E-11 to 1E-5 M and a final 17β-estradiol concentration of 8E-10 M. Assay plates were incubated for 24 hours in a humidified 37° C. incubator. Culture medium was removed from the assay plates by inversion. Detection substrate and buffer was warmed to room temperature, mixed thoroughly, and immediately added to the assay plates. […] Luminescence was measured in a Synergy HTX luminescence plate reader. Data is processed utilizing GraphPad Prism 7 by graphing the relative light units measured at each compound concentration.

| IC50 (Estrogen receptor [1]) [nM] | IC50 (Estrogen receptor [2]) [nM] | Compound |
| --- | --- | --- |
| < 1000 |  | Cc1cc(F)cc(C)c1C(=O)c1sc2cc(O)ccc2c1Oc1ccc(OCCN2CCCC2)cc1 [US10208011, Compound 108] |
|  | < 1000 | Cc1cc(F)cc(C)c1C(=O)c1sc2cc(O)ccc2c1Oc1ccc(OCCN2CCCCCC2)cc1 [US10208011, Compound 107] |
|  | < 1000 | Cc1cc(F)cc(C)c1C(=O)c1sc2cc(O)ccc2c1Oc1ccc(OCCN2CCCCC2)cc1 [US10208011, Compound 106] |
